Experimental data taken from patent publication EP0321175A1, “Indane derivatives” (BEECHAM GROUP PLC, priority 1987, dated 1989).

What was measured:
[1] = system: Spontaneously hypertensive rats; experiment: Blood pressure lowering activity, tail cuff method; assay type: in vivo
Experimental: Systolic blood pressure were recorded by a modification of the tail cuff method described by I.M. Claxton, M.G. Palfreyman, R.H. Poyser, R.L. Whiting, European Journal of Pharmacology, 37, 179 (1976). A W+W BP recorder, model 8005 was used to display pulses.Prior to all measurements rats were placed in a heated environment (33.5 ± 0.5°C) before transfer to a restraining cage. Each determination of blood pressure was the mean of at least 6 readings. Spontaneously hypertensive rats (ages 12-18 weeks) with systolic blood pressures >180 mmHg were considered hypertensive.

[2] = system: guinea pig tracheal spiral preparations; experiment: Bronchodilation in vitro; guinea pig tracheal spiral preparations; assay type: cell-based; conditions: relative to total relaxation evoked in the presence of 10⁻³M isoprenaline; for Emax: Cavia porcellus, read-out: I.A. (Intrinsic Activity, efficacy)
Experimental: Male guinea pigs (300-600g) were stunned by a blow to the head and bled from the carotid artery. The trachea was exposed, dissected free of connective tissue, and transferred to oxygenated krebs solution at 37°C. Next, spirals (2 per trachea) were prepared by cutting the whole trachea spirally along its longitudinal axis and then dividing this spiral lengthwise. Each preparation was mounted, using silk thread, in a 10ml organ bath filled with krebs solution at 37°C and bubbled with 5% CO₂ with O₂. The resting tension of the preparations was set at 2g and changes in muscle tension were monitored isometrically by means of a UFI (2oz) force and displacement transducer (Ormed Ltd) connected to a Linseis pen recorder. All preparations were allowed to equilibrate for 60 minutes. During this equilibration period the preparations were washed by upward displacement at 15 minute intervals and, if necessary, the resting tension was readjusted to 2g using a mechanical micromanipulator system.
Once a steady resting tension had been obtained, the preparations were dosed cumulatively with the test compound (10⁻⁸-2x10⁻⁵M), and finally a maximum relaxation achieved by addition of 10⁻³M isoprenaline. The fall in tension evoked by the test compound was expressed as a percentage of the total relaxation evoked in the presence of 10⁻³M isoprenaline. Appropriate concentration-relaxation curves were then constructed and values for potency (IC₅₀) and efficacy (Intrinsic Activity, I.A.) were obtained.
The compositions of Krebs solution is: sodium chloride 118.07mM, sodium hydrogen carbonate 26.19mM, potassium chloride 4.68mM, potassium orthophosphate 1.18mM, magnesium sulphate septahydrate 1.8mM and calcium chloride 2.52mM;pH ca. 7.45.

Compound	% change in systolic B.P. ([1]; 1 mg/kg p.o., 1 h post dose)	% change in systolic B.P. ([1]; 1 mg/kg p.o., 2 h post dose)	% change in systolic B.P. ([1]; 1 mg/kg p.o., 4 h post dose)	Emax [2]	other results
CC1(C)c2ccc(C#N)cc2[C@@H](n2ccccc2=O)[C@@H]1O [Example 7, Trans-5-cyano-1,1-dimethyl-3-(2-pyridon-1-yl)-indan-2-ol]	-31 ± 3%	-22 ± 4%	-20 ± 4%	81%	% change in systolic B.P. ([1]; 1 mg/kg p.o., 6 h post dose): -12 ± 6%
CC1(C)c2ccc([N+](=O)[O-])cc2[C@@H](N2CCCCC2=O)[C@@H]1O (relative stereo) [Example 3, Trans 1,1-Dimethyl-5-nitro-3-(2-oxopiperidin-1-yl) indan-2-ol]	-33 ± 5 (n=5) %	-17 ± 3 (n=4) %	-22 ± 4 (n=6) %	89%	% change in systolic B.P. ([1]; 1 mg/kg p.o., 6 h post dose): -19 ± 5 (n=6) %
CC1(C)c2ccc(N)cc2[C@@H](n2ccccc2=O)[C@@H]1O (relative stereo) [Example 9, Trans-5-amino-1,1-dimethyl-3-(2-pyridon-1-yl)indan-2-ol]					% change in systolic B.P. ([1]; 3 mg/kg p.o., 1 h post dose): -12 ± 2%; % change in systolic B.P. ([1]; 3 mg/kg p.o., 2 h post dose): -16 ± 3%; % change in systolic B.P. ([1]; 3 mg/kg p.o., 4 h post dose): -14 ± 4%; % change in systolic B.P. ([1]; 3 mg/kg p.o., 6 h post dose): -11 ± 2%
CCc1ccc2c(c1)[C@@H](n1ccccc1=O)[C@H](O)C2(C)C (relative stereo) [Example 23, Trans 1,1-Dimethyl-5-ethyl-3-(2-pyridon-1-yl)indan-2-ol]					I.A. (Intrinsic Activity, efficacy) [2]: 0.92
CC1(C)C=C(N2CCCCC2=O)c2ccc(C(F)(F)F)cc21 [Example 16, 1,1-dimethyl-3-(2-oxopiperidin-1-yl)-6-trifluoromethylind-2-ene]				89%	
O=C(N[C@@H]1c2cc([N+](=O)[O-])ccc2C[C@H]1O)c1ccc(F)cc1 [Example 10, Trans-1-N-(4-fluorobenzamido)-6-nitroindan-2-ol]				59%	
CC1(C)C=C(N2CCCCC2=O)c2cc([N+](=O)[O-])ccc21 [Example 4, 1,1-dimethyl-5-nitro-3-(2-oxopiperidin-1-yl)ind-2-ene]				94%	
C[C@@H]1CCC(=O)N1[C@@H]1c2cc([N+](=O)[O-])ccc2C(C)(C)[C@H]1O (mixture of isomers) [Example 26, Trans-1,1-Dimethyl-5-nitro-3-(5-(R)-methyl-2-oxopyrrolidin-1-yl)indan-2-ol]				98%	
CC1(C)C=C(n2ccccc2=O)c2cc(C#N)ccc21 [Example 8, 5-Cyano-1,1-dimethyl-3-(2-pyridon-1-yl)ind-2-ene]	-12 ± 5%	-15 ± 3%	-26 ± 8%	77%	% change in systolic B.P. ([1]; 1 mg/kg p.o., 6 h post dose): -21 ± 2%
CCc1ccc2c(c1)[C@@H](N1CCCCC1=O)[C@H](O)C2(C)C (relative stereo) [Example 17, Trans-1,1-Dimethyl-5-ethyl-3-(2-oxopiperidin-1-yl)indan-2-ol]				76%	
CC1(C)C=C(CN2CCCC2=O)c2cc(C#N)ccc21 [Example 24, 5-Cyano-1,1-dimethyl-3-[(2-oxopyrrolidin-1-yl)methyl]ind-2-ene]				59%	
CC1(C)C=C(n2ccccc2=O)c2cc([N+](=O)[O-])ccc21 [Example 6, 1,1-Dimethyl-5-nitro-3-(2-pyridon-1-yl)ind-2-ene]	-18 ± 3%	-18 ± 3%	-13 ± 3%	95%	
C[C@@H]1CCC(=O)N1C1=CC(C)(C)c2ccc([N+](=O)[O-])cc21 [Example 27, 1,1-dimethyl-5-nitro-3-(5-(R)-methyl-2-oxopyrrolidin-1-yl)ind-2-ene]				93%	
CC1(C)c2ccc([N+](=O)[O-])cc2[C@@H](n2ccccc2=O)[C@@H]1O [Example 5, Trans-1,1-dimethyl-5-nitro-3-(2-pyridon-1-yl)indan-2-ol]	-40 (n=1) %	-43 (n=1) %	-43 ± 4 (n=1) %	91%	% change in systolic B.P. ([1]; 1 mg/kg p.o., 6 h post dose): -31 ± 5 (n=5) %
CC1(C)c2ccc([N+](=O)[O-])cc2[C@@H](N2CCCC2=O)[C@@H]1O (relative stereo) [Example 1, trans - 1,1-dimethyl-5-nitro-3-(2-oxopyrrolidin-1-yl)-indan-2-ol]				88%	% change in systolic B.P. ([1]; 10 mg/kg p.o., 1 h post dose): -48 ± 4(n=4) %; % change in systolic B.P. ([1]; 10 mg/kg p.o., 2 h post dose): -49 ± 6(n=3) %; % change in systolic B.P. ([1]; 10 mg/kg p.o., 4 h post dose): -42 ± 4(n=6) %; % change in systolic B.P. ([1]; 10 mg/kg p.o., 6 h post dose): -30 ± 4(n=6) %
